We go through 2 compounds from US9975896B2, “Inhibitors of transcription factors and uses thereof” (Dana-Farber Cancer Institute, Inc., priority 2013, dated 2018).

Residue numbers refer to the chain shown, from its start.

One assay has as its target T1, TAF1L(2) (Homo sapiens, UniProt Q8IZX4).
T1 construct: TAF1L(2)
T1 sequence (Q8IZX4 1517-1626 limits assumed): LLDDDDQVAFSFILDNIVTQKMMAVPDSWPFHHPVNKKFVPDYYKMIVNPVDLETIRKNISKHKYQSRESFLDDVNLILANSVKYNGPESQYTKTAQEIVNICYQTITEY
In words: BromoScan selectivity panel (Kd). It counts as binding.

The target in assay [1] is T2, CBP (Homo sapiens, UniProt Q92793). Briefly: BromoScan selectivity panel (Kd).
Target sequence in this assay (Q92793 1081-1197 limits assumed): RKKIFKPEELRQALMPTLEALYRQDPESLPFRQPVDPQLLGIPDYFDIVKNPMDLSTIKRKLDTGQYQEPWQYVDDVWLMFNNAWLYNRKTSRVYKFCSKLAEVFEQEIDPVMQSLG
The target in a further assay is T3, BAZ2A (Homo sapiens, UniProt Q9UIF9).
T3 sequence (Q9UIF9 1796-1899 limits assumed): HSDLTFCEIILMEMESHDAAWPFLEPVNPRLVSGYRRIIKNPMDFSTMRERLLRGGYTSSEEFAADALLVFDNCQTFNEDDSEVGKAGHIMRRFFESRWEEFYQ
Briefly: BromoScan selectivity panel (Kd). In kind it is binding.

Another assay addresses T4, TAF1(2) (Homo sapiens, UniProt P21675).
T4 construct: TAF1(2)
T4 sequence (P21675 1519-1628 limits assumed): T1 sequence (Q8IZX4 1517-1626 limits assumed) with M46V, V51M, I102V, I107L
In words: BromoScan selectivity panel (Kd). In kind it is binding.

The next assay concerns the target T5, WDR9(2) (Homo sapiens, UniProt Q9NSI6).
T5 construct: WDR9(2)
In words: BromoScan selectivity panel (Kd). In kind it is binding.

The next assay deals with T6, ATAD2A (Homo sapiens, UniProt Q6PL18).
T6 sequence (Q6PL18 981-1108 limits assumed): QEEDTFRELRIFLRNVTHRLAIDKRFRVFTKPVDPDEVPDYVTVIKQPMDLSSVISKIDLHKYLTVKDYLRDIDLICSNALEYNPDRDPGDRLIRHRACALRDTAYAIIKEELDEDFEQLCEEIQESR
In words: BromoScan selectivity panel (Kd). It counts as binding.

Another assay concerns the target T7, BRPF1 (Homo sapiens, UniProt P55201).
T7 sequence (P55201 626-740 limits assumed): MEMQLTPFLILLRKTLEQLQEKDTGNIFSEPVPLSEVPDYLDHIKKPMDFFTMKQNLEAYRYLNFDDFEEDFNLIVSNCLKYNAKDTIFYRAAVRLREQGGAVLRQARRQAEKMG
In words: BromoScan selectivity panel (Kd). It counts as binding.

The next assay has as its target T8, TRIM24(PHD Bromo.) (Homo sapiens, UniProt O15164).
T8 construct: TRIM24(PHD Bromo.)
T8 sequence (O15164 824-1006 limits assumed): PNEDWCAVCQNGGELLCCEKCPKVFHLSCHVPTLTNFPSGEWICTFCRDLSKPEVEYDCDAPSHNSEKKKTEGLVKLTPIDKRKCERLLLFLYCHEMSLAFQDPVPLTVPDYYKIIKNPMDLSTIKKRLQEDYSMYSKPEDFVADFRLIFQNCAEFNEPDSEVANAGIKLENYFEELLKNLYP
In words: BromoScan selectivity panel (Kd). In kind it is binding.

The target in a further assay is T9, BRD1 (Homo sapiens, UniProt O95696).
T9 sequence (O95696 556-688 limits assumed): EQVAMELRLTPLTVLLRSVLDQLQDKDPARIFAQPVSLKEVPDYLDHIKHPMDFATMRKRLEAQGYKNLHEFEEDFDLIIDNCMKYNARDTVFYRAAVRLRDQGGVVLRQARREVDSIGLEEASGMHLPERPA
Briefly: BromoScan selectivity panel (Kd). In kind it is binding.

For a further assay, the target named is FALZ (Homo sapiens, UniProt Q12830). Briefly: BromoScan selectivity panel (Kd). It counts as binding.
The next assay concerns the target T10, BRDT(1) (Homo sapiens, UniProt Q58F21).
T10 construct: the bromodomain-containing protein is BRDT(1)
Briefly: BromoScan selectivity panel (Kd). In kind it is binding.

A further assay addresses T11, BRD9 (Homo sapiens, UniProt Q9H8M2).
T11 sequence (Q9H8M2 130-250 limits assumed): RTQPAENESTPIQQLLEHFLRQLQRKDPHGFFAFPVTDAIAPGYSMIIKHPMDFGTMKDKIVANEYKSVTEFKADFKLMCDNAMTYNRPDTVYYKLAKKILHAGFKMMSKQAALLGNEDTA
In words: BromoScan selectivity panel (Kd). It counts as binding.

For a further assay, the target named is T12, EP300 (Homo sapiens, UniProt Q09472).
T12 sequence (Q09472 1040-1161 limits assumed): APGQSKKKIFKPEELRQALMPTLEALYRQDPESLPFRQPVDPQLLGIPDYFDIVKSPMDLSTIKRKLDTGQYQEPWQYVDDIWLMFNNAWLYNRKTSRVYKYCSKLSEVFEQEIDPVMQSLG
Briefly: BromoScan selectivity panel (Kd). It counts as binding.

In another assay the target is BRDT(2) (Homo sapiens, UniProt Q58F21). Briefly: BromoScan selectivity panel (Kd). In kind it is binding.
A further assay concerns the target T13, BAZ2B (Homo sapiens, UniProt Q9UIF8).
T13 sequence (Q9UIF8 2054-2168 limits assumed): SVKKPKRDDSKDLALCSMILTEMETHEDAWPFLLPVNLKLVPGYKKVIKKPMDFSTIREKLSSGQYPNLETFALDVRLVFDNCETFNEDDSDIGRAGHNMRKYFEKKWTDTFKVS
Briefly: BromoScan selectivity panel (Kd). It counts as binding.

The next assay has as its target T14, ATAD2B (Homo sapiens, UniProt Q9ULI0).
T14 sequence (Q9ULI0 953-1085 limits assumed): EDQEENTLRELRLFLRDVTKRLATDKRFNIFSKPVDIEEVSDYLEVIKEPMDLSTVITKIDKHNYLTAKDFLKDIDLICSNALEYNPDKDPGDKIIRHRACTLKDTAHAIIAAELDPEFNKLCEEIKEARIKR
In words: BromoScan selectivity panel (Kd). It counts as binding.

The target in another assay is T15, TRIM33(PHD Bromo.) (Homo sapiens, UniProt Q9UPN9).
T15 construct: TRIM33(PHD, Bromo.); TRIM33(PHD Bromo.); fused on or other part: The vendor panel's detection tag or display handle
T15 sequence (Q9UPN9 1-1127): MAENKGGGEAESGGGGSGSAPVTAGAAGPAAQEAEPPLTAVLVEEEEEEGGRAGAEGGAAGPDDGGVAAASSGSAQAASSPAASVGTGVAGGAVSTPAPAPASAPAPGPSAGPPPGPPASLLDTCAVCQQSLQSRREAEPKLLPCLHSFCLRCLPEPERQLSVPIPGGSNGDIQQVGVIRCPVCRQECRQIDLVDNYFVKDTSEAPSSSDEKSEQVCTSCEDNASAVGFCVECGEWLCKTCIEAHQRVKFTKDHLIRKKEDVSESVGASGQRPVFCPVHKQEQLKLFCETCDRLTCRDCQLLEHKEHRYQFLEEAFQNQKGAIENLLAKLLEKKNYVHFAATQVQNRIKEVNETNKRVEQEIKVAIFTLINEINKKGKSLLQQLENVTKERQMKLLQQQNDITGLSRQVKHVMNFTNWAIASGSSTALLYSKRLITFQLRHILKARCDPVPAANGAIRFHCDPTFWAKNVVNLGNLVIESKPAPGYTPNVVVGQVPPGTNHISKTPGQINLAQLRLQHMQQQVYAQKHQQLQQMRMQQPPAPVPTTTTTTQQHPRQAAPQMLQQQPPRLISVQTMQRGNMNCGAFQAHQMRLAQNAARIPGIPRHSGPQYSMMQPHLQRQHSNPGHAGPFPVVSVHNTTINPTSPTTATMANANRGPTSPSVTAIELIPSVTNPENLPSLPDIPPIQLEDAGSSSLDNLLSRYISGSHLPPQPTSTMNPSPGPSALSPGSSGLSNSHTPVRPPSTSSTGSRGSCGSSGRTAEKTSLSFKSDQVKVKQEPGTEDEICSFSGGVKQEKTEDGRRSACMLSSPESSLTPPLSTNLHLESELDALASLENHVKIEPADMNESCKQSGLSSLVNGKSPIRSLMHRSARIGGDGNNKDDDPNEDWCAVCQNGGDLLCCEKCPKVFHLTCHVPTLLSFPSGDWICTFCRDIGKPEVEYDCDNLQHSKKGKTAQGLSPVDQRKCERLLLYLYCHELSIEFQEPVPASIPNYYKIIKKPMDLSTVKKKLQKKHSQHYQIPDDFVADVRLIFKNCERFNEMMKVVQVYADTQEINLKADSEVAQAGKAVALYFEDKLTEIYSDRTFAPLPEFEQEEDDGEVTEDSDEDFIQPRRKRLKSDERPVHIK
Briefly: BromoScan selectivity panel (Kd). In kind it is binding.

In another assay the target is T16, BRPF3 (Homo sapiens, UniProt Q9ULD4).
T16 sequence (Q9ULD4 589-693 limits assumed): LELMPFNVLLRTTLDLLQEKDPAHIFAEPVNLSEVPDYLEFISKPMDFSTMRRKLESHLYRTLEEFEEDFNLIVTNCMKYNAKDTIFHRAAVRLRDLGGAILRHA
In words: BromoScan selectivity panel (Kd). It counts as binding.

Assay [2] relates to BRD4-dependent Nut-Midline Carcinoma line 797. In words: Cell viability (ATPlite) in BRD4 dependant cell line 797. Particulars: Homo sapiens, read-out: 797--EC50 (μM).
In the next assay the target is BRD4 (Homo sapiens, UniProt O60885). In words: In vitro AlphaScreen protein binding assay (competition with biotinylated JQ1).
Assay [3] relates to lung carcinoma cell line H2171. Briefly: Cellular IC50 in lung carcinoma cell line H2171. In kind it is cell-based. The method, then:
Cells (e.g., BRD4 dependant cells) were counted and adjusted to 60,000 cells/mL. Using a Biotek EL406, 50 μL of the cells in media were distributed into 384 well white plates from Thermo. Immediately after plating, compounds of the invention in DMSO were distributed to plates. For large plate sets, cells were returned to a 37° C. incubator while not in use. The compounds were added to plates using a 100 nL 384 well pin transfer manifold on a Janus workstation. Stocks were arrayed in 10 point quadruplicate dose response in DMSO stock in 384-well Greiner compound plates. After addition of the compounds, plates were incubated for three days in a 37° C. incubator. Cell viability was read out using ATPlite from Perkin Elmer. Plates were removed from the incubator and brought to room temperature prior to use. Lyophilized powder was resuspended in lysis buffer and diluted 1:2 with DI water. 25 μL of this solution was added to each well using the Biotek liquid handler. Plates were sealed with adherent aluminum seals prior to vortexing and spinning down at 1000 g for 1 minute. Plates were incubated for 15 minutes at room temperature before signal was read on an Envision Plate Reader.

Assay [4] concerns the target T2, CBP. In words: In vitro AlphaScreen protein binding assay, CBP.
Target sequence in this assay (Q92793 1085-1192 limits assumed): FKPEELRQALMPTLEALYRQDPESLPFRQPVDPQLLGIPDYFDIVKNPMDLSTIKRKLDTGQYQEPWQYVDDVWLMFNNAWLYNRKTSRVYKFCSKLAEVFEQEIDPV
Method: Assays were performed with minor modifications from the manufacturer's protocol (PerkinElmer, USA). All reagents were diluted in 50 mM HEPES, 150 mM NaCl, 0.1% w/v BSA, and 0.01% w/v Tween® 20 at pH 7.5 and allowed to equilibrate to room temperature prior to addition to plates. After addition of Alpha beads to master solutions, all subsequent steps were performed in low light conditions. […] After a 1000-rpm spin-down for 1 minute, 100 nL of the solutions of compounds of the invention in DMSO from stock plates were added by pin transfer using a Janus Workstation (PerkinElmer, USA). The streptavidin-coated donor beads (25 μg/ml final) were added as with previous solution in a 2×, 10 μL volume. Following this addition, the plates were sealed with foil to block light exposure and to prevent evaporation. The plates were spun down again at 1000 rpm for 1 minute. Next, the plates were incubated in the room with the plate reader (for temperature equilibration) for 1 hour prior to reading the assay. Signal is stable for up to 3 hours after donor bead addition.

T5 sequence (Q9NSI6 1313-1418 limits assumed): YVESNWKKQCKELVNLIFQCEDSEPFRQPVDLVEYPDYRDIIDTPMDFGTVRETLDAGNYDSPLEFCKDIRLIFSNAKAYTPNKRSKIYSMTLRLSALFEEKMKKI

What is called Kd is the free concentration of one partner at which half of the binding sites on the other are occupied at equilibrium, for simple one-to-one binding. A high value points to weaker binding. In the case of `CCNC(=O)C[C@@H]1N=C(c2ccc(Cl)cc2)c2cc(OC)ccc2-n2c(C)nnc21` [I-BET, reference compound], the Kd at TAF1L(2) is at least 40 µM; on CBP [1] it was 76 µM; at BAZ2A it was at least 40 µM; on TAF1(2) it was at least 40 µM; on WDR9(2), at least 40 µM; on ATAD2A, at least 40 µM. The equilibrium dissociation constant (Kd) on BRPF1 was at least 40 µM; on TRIM24(PHD Bromo.), at least 40 µM; at BRD1, at least 40 µM; on FALZ it was at least 40 µM; at BRDT(1) it was 0.16 µM; at BRD9, at least 40 µM. Further, the Kd at EP300 is 71 µM; on BRDT(2) it was 0.045 µM; at BAZ2B, at least 40 µM; on ATAD2B, at least 40 µM; on TRIM33(PHD Bromo.), at least 40 µM; at BRPF3 it was at least 40 µM.

Broadly, the EC50 is the concentration giving half of the maximal effect. Broadly, the IC50 is the point on the concentration scale where inhibition reaches its midpoint. A high value points to weaker potency. With `CCOC(=O)[C@]1(C)N[C@H](c2ccc(-c3c(C)noc3C)cc2)[C@@H]2C(=O)N(CC)C(=O)[C@@H]21` [UMB17, (1R,3S,3aR,6aS)-ethyl 3-(4-(3,5-dimethylisoxazol-4-yl)phenyl)-5-ethyl-1-methyl-4,6-dioxooctahydropyrrolo[3,4-c]pyrrole-1-carboxylate], in [2], the EC50 was 9.42 µM. For the same compound, the IC50 on BRD4 (BRD4--IC50 (μM), Table 5, biochemical) was over 100 µM; on BRD4 (BRD4 IC50 (μM), Table 2, AlphaScreen) it was 122 µM; in [3] (Homo sapiens, NCI-H2171, Table 2, cellular, lung carcinoma cell line H2171), 55 µM; at CBP [4], 30 µM. Further, in assay [3] (text b616), the “cellular activity in H2171” value is recorded as “show cellular activity in H2171”.
